# Measurements: patent publication US20230149418A1, “METHODS AND SYNERGIC COMPOSITIONS FOR TREATING VIRAL INFECTIONS” (HADASIT MEDICAL RESEARCH SERVICES AND DEVELOPMENT LTD., priority 2018, published 2023)
# Read-outs that look alike come from different tables or passages of the source.
# System: HCMV TB40/E strain
# Experiment: Plaque reduction assay, HCMV TB40/E strain in human foreskin fibroblasts, single drugs and 2-drug combinations (Chou-Talalay)
# Format: cell-based, human cytomegalovirus
# Conditions: for EC50: Human betaherpesvirus 5, Fibroblast; for Dose of drug alone at Fa 0.75: Fa 0.75, drug alone; for Dose of drug alone at Fa 0.9: Fa 0.9, drug alone; for Dose of drug alone at Fa 0.95: Fa 0.95, drug alone; for Dose of drug alone at Fa 0.97: Fa 0.97, drug alone; for Dose of drug alone at Fa 0.05: Fa (fraction of virus affected) 0.05, drug alone
# Experimental: The CMV strain used was TB40/E. The CMV strain was propagated and tittered in human foreskin fibroblasts (HFF) cells. Cell-free virus stocks and cell-associated clinical isolates were maintained at -70° C. Viral stocks were tittered by serial 10-fold dilution in 24-well tissue culture plates containing HFF monolayers overlaid with agarose-medium. After incubation for 7 to 14 days, plaques were enumerated, and virus titer was determined as plaque forming units (PFU) per milliliter (ml). Stocks of artemisone (10 mM), ganciclovir (10 mM), BDCRB (120 mM), brincidofovir (1 mM), maribavir (10 mM) and letermovir (10 mM) were prepared in DMSO or H2O.
# Cell monolayers were inoculated in 24-well culture plates with 0.2 ml of virus suspension containing 60 to 100 PFU per well. After adsorption for 60 -120 min at 37° C., the inoculum was removed, and culture medium was replaced with agarose-medium overlay containing serial concentrations of the tested drug(s). Plates were incubated for 7-14 days at 37° C. in a 5% CO2 incubator. Plaques were then counted microscopically.
# The effect of a combination of artemisone with each one of ganciclovir (HCMV DNA polymerase), BDCRB (HCMV terminase inhibitor), brincidofovir (HCMV DNA polymerase inhibitor), maribavir (HCMV UL97 kinase inhibitor) and letermovir (HCMV terminase inhibitor) was evaluated by the classical plaque reduction assay. The in vitro activity of each of the above mentioned antiviral compounds alone or in combination with artemisone was evaluated by the classical plaque reduction assay, using HCMV TB40/E strain in human foreskin fibroblasts cells. The concentration of each antiviral compound that reduced the plaque formation by 50% (EC50) was determined as previously described in Wolf DG et al., J Clin Invest. 1995;95:257-63. The individual EC50 values in human foreskin fibroblasts were as follows: artemisone EC50 - 1 µM; ganciclovir EC50 - 1 µM; maribavir EC50 - 1 µM; BDCRB EC50 - 0.5 µM; letermovir EC50 - 5 nM; brincidofovir EC50 -1 nM.
# For the 2-drug combination studies, the EC50 value of each drug was used to determine an equipotent ratio between the two compounds (EC50 of drug 1 / EC50 of drug 2). Serial 2-fold dilutions of a mixture comprising artemisone and another antiviral compound at initial concentrations equivalent to 4-fold the equipotent ratio were added to duplicate wells of cells infected with HCMV. Overall, 5 different concentrations of the drug combinations were used: 4xEC50, 2xEC50, 1xEC50,0.5xEC50,0.25xEC50. The cell monolayers were inoculated in 24-well culture plates with 0.2 ml of virus suspension containing 60 to 100 plaque-forming unit (PFU) per well; the Multiplicity of infection (MOI) was 0.001-0.002 PFU/cell).
# D1 and D2 are the doses of the two drugs, and Dx is a dose causing to x% effect (LD0.5 is EC50). Briefly, the software extrapolated a combination index (CI) representing the interaction between the two drugs at specified levels of virus inhibition (that is 50%, 75%, 90%, 95%) versus the percentages of the inhibition induced by each drug alone and in combination (equation 16 in Chou).
# A weighted average CI (CIwt) was then calculated for each combination as (CI50+ 2×CI75+3×CI90+4×CI95)/10, to access the drug combinatory effects.
# The dose reduction index (DRI) was then calculated as described in Chou. In general, the DRI measures the fold of dose reduction of each drug in the combination at a given effect level compared with the doses of each drug alone. For each one of the below tables: Fa - fraction of virus affected; doses are provided in µm.
# [1] = drug alone, human foreskin fibroblasts, read-out: EC50 (concentration that reduced the plaque formation by 50%)
# [2] = Fa 0.5, drug alone, read-out: Dose of drug alone at Fa 0.5
structure (smiles),measurement,setting,value
"OC[C@H]1O[C@@H](n2c(Br)nc3cc(Cl)c(Cl)cc32)[C@H](O)[C@@H]1O [BDCRB, 2-bromo-5,6-dichloro-1-beta-D-ribofuranosyl benzimidazole]",EC50,[1],500 nM
Nc1ccn(C[C@@H](CO)OCP(=O)(O)O)c(=O)n1 [cidofovir],Dose of drug alone at Fa 0.75,,0.646 µm
same,Dose of drug alone at Fa 0.9,,1.148 µm
same,Dose of drug alone at Fa 0.95,,1.698 µm
same,Dose of drug alone at Fa 0.97,,2.242 µm
same,Dose of drug alone at Fa 0.05,,0.07783 µm
same,EC50,[2],364 nM
same,DRI (dose reduction index),"combination artemisone + cidofovir, Fa 0.05",1.038
same,DRI (dose reduction index),"combination artemisone + cidofovir, Fa 0.5",1.757
same,DRI (dose reduction index),"combination artemisone + cidofovir, Fa 0.75",2.139
same,DRI (dose reduction index),"combination artemisone + cidofovir, Fa 0.9",2.6
same,DRI (dose reduction index),"combination artemisone + cidofovir, Fa 0.9, listed as CDV",2.603
same,DRI (dose reduction index),"combination artemisone + cidofovir, Fa 0.95",2.975
same,DRI (dose reduction index),"combination artemisone + cidofovir, Fa 0.97",up to 3.27
same,DRI (dose reduction index),"combination artemisone + cidofovir, Fa 0.97, listed as CDV",3.271
Nc1nc2c(ncn2COC(CO)CO)c(=O)[nH]1 [ganciclovir],Dose of drug alone at Fa 0.75,,1.113 µm
same,Dose of drug alone at Fa 0.9,,2.12 µm
same,Dose of drug alone at Fa 0.9,listed as GCV,2.121 µm
same,Dose of drug alone at Fa 0.95,,3.287 µm
same,Dose of drug alone at Fa 0.97,,4.491 µm
same,Dose of drug alone at Fa 0.05,,0.1039 µm
same,EC50,[2],584 nM
same,EC50,[1],1000 nM
same,DRI (dose reduction index),"combination artemisone + ganciclovir, Fa 0.05",1.342
same,DRI (dose reduction index),"combination artemisone + ganciclovir, Fa 0.5",1.673
same,DRI (dose reduction index),"combination artemisone + ganciclovir, Fa 0.75",1.817
same,DRI (dose reduction index),"combination artemisone + ganciclovir, Fa 0.9, listed as GCV",1.973
same,DRI (dose reduction index),"combination artemisone + ganciclovir, Fa 0.95",2.09
same,DRI (dose reduction index),"combination artemisone + ganciclovir, Fa 0.95, listed as GCV",2.086
same,DRI (dose reduction index),"combination artemisone + ganciclovir, Fa 0.97",2.171
